This note sets out measurements from ChEMBL document CHEMBL1146167, “Structural correlation between lipophilicity and lipopolysaccharide-sequestering activity in spermine-sulfonamide analogs” (Bioorg Med Chem Lett, 2006).

The nature of the experiment: Binding affinity to LPS by fluorescence-based displacement assay.

Consider `NCCCNCCCCNCCCNS(=O)(=O)c1ccc(Cl)cc1`, for which the ED50 was found to be 158 µM. Compound `NCCCNCCCCNCCCNS(=O)(=O)c1ccc(C(F)(F)F)cc1` had an ED50 of 884 µM. As to `NCCCNCCCCNCCCNS(=O)(=O)c1ccc(Cl)c(Cl)c1Cl`, the ED50 amounted to 9 µM.

Compound `NCCCNCCCCNCCCNS(=O)(=O)c1cccc2cccnc12` came in with an ED50 of 4880 µM.

Consider `NCCCNCCCCNCCCNS(=O)(=O)c1cc(Cl)c(Cl)cc1Cl`, for which the ED50 is 19 µM.

The compound `CCCCCCCCS(=O)(=O)NCCCNCCCCNCCCN` yielded an ED50 of 5 µM.

Turning to `CCCCCCCCCCCCCCCCCCS(=O)(=O)NCCCNCCCCNCCCN`, the ED50 came to 6 µM. `NCCCNCCCCNCCCNS(=O)(=O)c1ccc(Br)cc1Br` displayed an ED50 of 2110 µM.

`CCCCS(=O)(=O)NCCCNCCCCNCCCN`: the ED50 is over 10000 µM.

`NCCCNCCCCNCCCNS(=O)(=O)c1ccc(Cl)c(C(F)(F)F)c1` had an ED50 of 21 µM. `CCCCCCCCCCCCS(=O)(=O)NCCCNCCCCNCCCN` returned an ED50 of 3 µM. The compound `NCCCNCCCCNCCCNS(=O)(=O)c1ccc(Cl)cc1Cl` returned an ED50 of 56 µM. On to `NCCCNCCCCNCCCNS(=O)(=O)c1ccccc1`, for which the ED50 was 2960 µM. `CC1(C)C2CCC1(CS(=O)(=O)NCCCNCCCCNCCCN)C(=O)C2` (centres undefined): the ED50 worked out at 1680 µM. Turning to `CCCCCCCCCCCCCCCCS(=O)(=O)NCCCNCCCCNCCCN`, the ED50 came out at 2 µM.

In the case of `NCCCNCCCCNCCCNS(=O)(=O)c1cccc2ccccc12`, the ED50 is 34 µM. The compound `CCCCCCCCCCS(=O)(=O)NCCCNCCCCNCCCN` showed an ED50 of 3 µM. `CC(C)(C)c1ccc(S(=O)(=O)NCCCNCCCCNCCCN)cc1` registered an ED50 of 25 µM. As to `CCCCOc1ccc(CC(C)(C)C)cc1S(=O)(=O)NCCCNCCCCNCCCN`, the ED50 is 4 µM.
